The text below walks through data of patent US20230104936A1, “TRPML MODULATORS” (Casma Therapeutics, Inc., priority 2019, published 2023).

This assay deals with TFEB. Nature of the assay: TFEB nuclear translocation assay, HeLa wt cells. Particulars: Homo sapiens, HeLa, 2 h, 2 hrs compound treatment, Table 1 does not say HeLa wt or TRPML1 KO. It is filed as cell-based. The method, boiled down:
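HeLa wt cells were treated with compound for 2 hrs at 37° C, then fixed in 4% PFA and immunostained for TFEB with an Alexa 488 secondary and Hoechst nuclear counterstain. Automated epifluorescence imaging at ×20 gave the ratio of nuclear TFEB intensity to a perinuclear ring region, from which AC50 was derived.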
In the case of `CN(C)S(=O)(=O)c1ccc(S(=O)(=O)Nc2ccccc2N2CCC(O)(c3ccc(Cl)cc3F)CC2)cc1` [Compound A-115, N4-{2-[4-(4-chloro-2-fluorophenyl)-4-hydroxypiperidin-1-yl]phenyl}-N1,N1-dimethylbenzene-1,4-disulfonamide], the AC50 (usually the concentration giving half of the maximal activity seen) was no more than 2000 nM.

The compound `O=S(=O)(Nc1cccnc1N1CCN(c2ncc(Cl)cc2F)CC1)c1ccc(OC(F)(F)F)cc1` [Compound A-116, N-{2-[4-(5-chloro-3-fluoropyridin-2-yl)piperazin-1-yl]pyridin-3-yl}-4-(trifluoromethoxy)benzene-1-sulfonamide] returned an AC50 of no less than 10000 nM.

`COc1ccc(S(=O)(=O)Nc2cccnc2N2CCN(c3ccc(C#N)cc3F)CC2)cc1` [Compound A-117, N-{2-[4-(4-cyano-2-fluorophenyl)piperazin-1-yl]pyridin-3-yl}-4-methoxybenzene-1-sulfonamide] yielded an AC50 of no less than 10000 nM.

Compound `COc1ccc(S(=O)(=O)Nc2ccccc2N2CCC(c3ccc(F)cc3F)CC2)nc1` [Compound A-118, N-{2-[4-(2,4-difluorophenyl)piperidin-1-yl]phenyl}-5-methoxypyridine-2-sulfonamide] showed an AC50 of 2010 to 8000 nM.

With `Cc1ccc(S(=O)(=O)Nc2ccccc2N2[C@@H]3CC[C@H]2C[C@H](c2ccccc2F)C3)cc1` [Compound A-119, N-{2-[(1R,3S,5S)-3-(2-fluorophenyl)-8-azabicyclo[3.2.1]octan-8-yl]phenyl}-4-methylbenzene-1-sulfonamide], the AC50 was no more than 2000 nM.

Consider `Cc1ccc(S(=O)(=O)Nc2ccccc2N2[C@@H]3CC[C@H]2C[C@@H](c2ccccc2F)C3)cc1` [Compound A-120, N-{2-[(1R,3R,5S)-3-(2-fluorophenyl)-8-azabicyclo[3.2.1]octan-8-yl]phenyl}-4-methylbenzene-1-sulfonamide], for which the AC50 is no more than 2000 nM.

In turn, `C[C@@H]1CN(c2ccccc2NS(=O)(=O)c2ccc(S(=O)(=O)N(C)C)cc2)C[C@H](C)N1c1ccc(Cl)cn1` [Compound A-121, N4-{2-[(3R,5S)-4-(5-chloropyridin-2-yl)-3,5-dimethylpiperazin-1-yl]phenyl}-N1,N1-dimethylbenzene-1,4-disulfonamide] showed an AC50 of no more than 2000 nM.

Turning to `O=S(=O)(Nc1cccc(N2CCC(c3ccc(Cl)cc3F)CC2)c1)c1cccc(F)c1` [Compound A-122, N-{3-[4-(4-chloro-2-fluorophenyl)piperidin-1-yl]phenyl}-3-fluorobenzene-1-sulfonamide], the AC50 is no less than 10000 nM.

For `COc1ccc(S(=O)(=O)Nc2ccccc2N2CCC(c3ccc(F)cc3F)CC2)cn1` [Compound A-123, N-{2-[4-(2,4-difluorophenyl)piperidin-1-yl]phenyl}-6-methoxypyridine-3-sulfonamide], the AC50 lay within 2010 to 8000 nM.

With `CS(=O)(=O)c1ccc(S(=O)(=O)Nc2ccccc2N2CCC(c3c(F)cccc3F)CC2)cc1` [Compound A-124, N-{2-[4-(2,6-difluorophenyl)piperidin-1-yl]phenyl}-4-methanesulfonylbenzene-1-sulfonamide], the AC50 is no more than 2000 nM.

In the case of `O=S(=O)(Nc1cccc(N2CCC(c3ccc(Cl)cc3F)CC2)c1)c1ccc(F)cc1` [Compound A-128, N-{3-[4-(4-chloro-2-fluorophenyl)piperidin-1-yl]phenyl}-4-fluorobenzene-1-sulfonamide], the concentration at half-maximal activity (AC50) was no less than 10000 nM.

For `CN(C)S(=O)(=O)c1ccc(S(=O)(=O)Nc2cc(Cl)nnc2N2CCC(c3ccc(Cl)cc3F)CC2)cc1` [Compound A-129, N4-{6-chloro-3-[4-(4-chloro-2-fluorophenyl)piperidin-1-yl]pyridazin-4-yl}-N1,N1-dimethylbenzene-1,4-disulfonamide], the AC50 was no less than 10000 nM.

Turning to `COc1ccc(S(=O)(=O)Nc2nccnc2N2CCN(c3ncc(Cl)cc3F)CC2)cc1` [Compound A-130, N-{3-[4-(5-chloro-3-fluoropyridin-2-yl)piperazin-1-yl]pyrazin-2-yl}-4-methoxybenzene-1-sulfonamide], the AC50 was no less than 10000 nM.

As for `CS(=O)(=O)c1ccc(S(=O)(=O)Nc2ccccc2N2CCC(c3ncc(F)cc3F)CC2)cc1` [Compound A-131, N-{2-[4-(3,5-difluoropyridin-2-yl)piperidin-1-yl]phenyl}-4-methanesulfonylbenzene-1-sulfonamide], the AC50 is no more than 2000 nM.

Compound `CS(=O)(=O)c1ccc(S(=O)(=O)Nc2ccccc2N2CCC(c3c(F)cc(F)cc3F)CC2)cc1` [Compound A-132, 4-methanesulfonyl-N-{2-[4-(2,4,6-trifluorophenyl)piperidin-1-yl]phenyl}benzene-1-sulfonamide] yielded an AC50 of no more than 2000 nM.

Turning to `Cc1ccc(S(=O)(=O)c2ccccc2N2CCC(c3ccc(Cl)cc3F)CC2)cc1` [Compound A-133], the AC50 is no less than 10000 nM.

Take `CN(C)S(=O)(=O)c1ccc(S(=O)(=O)Nc2cccc(N3CCC(c4ccc(Cl)cc4F)CC3)n2)cc1` [Compound A-134, N4-{6-[4-(4-chloro-2-fluorophenyl)piperidin-1-yl]pyridin-2-yl}-N1,N1-dimethylbenzene-1,4-disulfonamide]: the AC50 is no less than 10000 nM.

In the case of `COc1ccc(S(=O)(=O)Nc2ncccc2N2CCN(c3ncc(Cl)cc3F)CC2)cc1` [Compound A-135, N-{3-[4-(5-chloro-3-fluoropyridin-2-yl)piperazin-1-yl]pyridin-2-yl}-4-methoxybenzene-1-sulfonamide], the AC50 was no less than 10000 nM.

For the compound `O=S(=O)(Nc1ccccc1N1CCC(c2ccc(F)cc2F)CC1)c1ccc(C(F)F)nc1` [Compound A-136, 6-(difluoromethyl)-N-{2-[4-(2,4-difluorophenyl)piperidin-1-yl]phenyl}pyridine-3-sulfonamide], the AC50 is no more than 2000 nM.

The compound `O=S(=O)(Nc1ccccc1N1CCC(c2ccc(F)cc2F)CC1)c1ccc(C(F)F)cn1` [Compound A-137, 5-(difluoromethyl)-N-{2-[4-(2,4-difluorophenyl)piperidin-1-yl]phenyl}pyridine-2-sulfonamide] came in with an AC50 of 2010 to 8000 nM.

`Cc1ccc(S(=O)(=O)Cc2ccccc2N2CCC(c3ccc(Cl)cc3F)CC2)cc1` [Compound A-138, 4-(4-chloro-2-fluorophenyl)-1-(2-(tosylmethyl)phenyl)piperidine] returned an AC50 of no more than 2000 nM.

In the case of `CN(C)S(=O)(=O)c1ccc(S(=O)(=O)Nc2ccnnc2N2CCC(c3ccc(Cl)cc3F)CC2)cc1` [Compound A-139, N4-{3-[4-(4-chloro-2-fluorophenyl)piperidin-1-yl]pyridazin-4-yl}-N1,N1-dimethylbenzene-1,4-disulfonamide], the AC50 is no less than 10000 nM.

`COc1ccc(S(=O)(=O)Nc2ccc3c(cnn3C)c2N2CCN(c3ncc(Cl)cc3F)CC2)cc1` [Compound A-140, N-{4-[4-(5-chloro-3-fluoropyridin-2-yl)piperazin-1-yl]-1-methyl-1H-indazol-5-yl}-4-methoxybenzene-1-sulfonamide] gave an AC50 of no more than 2000 nM.

Take `CN(C)S(=O)(=O)c1ccc(S(=O)(=O)Nc2ccccc2N2CCC(O)(c3ccc(F)cc3F)CC2)cc1` [Compound A-141, N4-{2-[4-(2,4-difluorophenyl)-4-hydroxypiperidin-1-yl]phenyl}-N1,N1-dimethylbenzene-1,4-disulfonamide]: the AC50 is no more than 2000 nM.

As for `CS(=O)(=O)c1ccc(S(=O)(=O)Nc2ccccc2N2CCC(O)(c3ccc(Cl)cc3F)CC2)cc1` [Compound A-142, N-{2-[4-(4-chloro-2-fluorophenyl)-4-hydroxypiperidin-1-yl]phenyl}-4-methanesulfonylbenzene-1-sulfonamide], the AC50 was in the range of 2010 to 8000 nM.

On to `CN(C)S(=N)(=O)c1ccc(S(=O)(=O)Nc2ccccc2N2CCC(O)(c3ccc(Cl)cc3F)CC2)cc1` (stereo not drawn) [Compound A-143, 4-({2-[4-(4-chloro-2-fluorophenyl)-4-hydroxypiperidin-1-yl]phenyl}sulfamoyl)-N,N-dimethylbenzene-1-sulfonoimidamide], for which the AC50 is no more than 2000 nM.

`Cc1ccc([S+]([O-])c2ccccc2N2CCC(c3ccc(Cl)cc3F)CC2)cc1` (stereo not drawn) [Compound A-144, 4-(4-chloro-2-fluorophenyl)-1-(2-(p-tolylsulfinyl)phenyl)piperidine]: the AC50 was no less than 10000 nM.

The compound `Cc1ccc([S+]([O-])Cc2ccccc2N2CCC(c3ccc(Cl)cc3F)CC2)cc1` (stereo not drawn) [Compound A-145, 4-(4-chloro-2-fluorophenyl)-1-(2-((p-tolylsulfinyl)methyl)phenyl)piperidine] registered an AC50 of no less than 10000 nM.

As to `CN1c2ccccc2N(S(=O)(=O)c2ccc(S(=O)(=O)N(C)C)cc2)CC1c1ccc(Cl)cc1F` (stereo not drawn) [Compound A-146, 4-{[3-(4-chloro-2-fluorophenyl)-4-methyl-1,2,3,4-tetrahydroquinoxalin-1-yl]sulfonyl}-N,N-dimethylbenzene-1-sulfonamide], the AC50 was no more than 2000 nM.

For the compound `COc1ccc(S(=O)(=O)Nc2ccccc2N2CCC(c3ncc(Cl)cc3F)CC2)cc1` [Compound A-147, N-{2-[4-(5-chloro-3-fluoropyridin-2-yl)piperidin-1-yl]phenyl}-4-methoxybenzene-1-sulfonamide], the AC50 lay in the range of 2010 to 8000 nM.

Take `CN(C)S(=O)(=O)c1ccc(S(=O)(=O)Nc2ccccc2N2CCC(O)(c3ccccc3)CC2)cc1` [Compound A-148, N4-[2-(4-hydroxy-4-phenylpiperidin-1-yl)phenyl]-N1,N1-dimethylbenzene-1,4-disulfonamide]: the AC50 is no more than 2000 nM.

Take `CN(C)S(=O)(=O)c1ccc(S(=O)(=O)Nc2ccccc2N2CCC(c3ccc(Cl)cc3F)CC2)c(F)c1` [Compound A-149, N4-{2-[4-(4-chloro-2-fluorophenyl)piperidin-1-yl]phenyl}-3-fluoro-N1,N1-dimethylbenzene-1,4-disulfonamide]: the AC50 was no more than 2000 nM.

On to `CN(C)S(=O)(=O)c1ccc(S(=O)(=O)Nc2ccccc2N2CCC(N)(c3ccc(Cl)cc3F)CC2)cc1` [Compound A-150, N4-{2-[4-amino-4-(4-chloro-2-fluorophenyl)piperidin-1-yl]phenyl}-N1,N1-dimethylbenzene-1,4-disulfonamide], for which the AC50 was no more than 2000 nM.
